Where only a bound is given, the exact number is not on record here.

The text below walks through data of ChEMBL document CHEMBL1136067, “The activity of diguanidino and 'reversed' diamidino 2,5-diarylfurans versus Trypanosoma cruzi and Leishmania donovani” (Bioorg Med Chem Lett, 2003).

In experiment [1] the test system is Trypanosoma cruzi. The experiment in a line: Inhibitory activity against Trypanosoma cruzi. The class given is functional, organism-based.
Experiment [2] concerns Nucleic Acid.
Experiment [3] has as its system Leishmania donovani. The experiment in a line: Inhibitory activity against Leishmania donovani (macrophage). The class given is functional, organism-based.
A short description of experiment [4]: Cell toxicity was evaluated. It is filed as functional.
Experiment [5] has as its system Nucleic Acid. This is another data set of the same source.
Description: DNA binding affinity measured as an increase in thermal melting of poly(dA.dT)2
Experiment [6] has as its system Leishmania donovani. The experiment in a line: Inhibitory activity against Leishmania donovani (amastigote). The class given is functional, organism-based.

On to `O=C(Cn1ccnc1[N+](=O)[O-])NCc1ccccc1` [BENZNIDAZOLE], for which the IC50 in experiment [1] was found to be 1.27 µM.

With `COc1cc(-c2ccc(-c3ccc(N=C(N)N)c(OC)c3)o2)ccc1N=C(N)N`, the ΔTm in experiment [2] amounted to 6.2; in experiment [5], 15.4. The IC50 in experiment [3] was over 29 µM; in experiment [1] it was 29 µM; in experiment [4] it was 39.6 µM; in experiment [6] (read-out: IC50), 14.5 µM.

With `N=C(N)c1ccc(OCCCCCOc2ccc(C(=N)N)cc2)cc1` [PENTAMIDINE], the ΔTm is 4.8 in experiment [2] and 12.8 in experiment [5]. Moreover, the IC50 was 9.3 µM in experiment [3], 7.1 µM in experiment [1], 4.2 µM in experiment [4] and 2.6 µM in experiment [6].

`N=C(N)Nc1ccc(-c2ccc(-c3ccc(NC(=N)N)cc3C(F)(F)F)o2)c(C(F)(F)F)c1`: the ΔTm was 0 in experiment [2] and 5.9 in experiment [5]. Further, the IC50 in experiment [3] is over 5.6 µM; in experiment [1] it was 31.2 µM; in experiment [4], 11.3 µM; in experiment [6] (read-out: IC50), 14.8 µM.

In the case of `CSc1cc(-c2ccc(-c3ccc(/N=C(\N)c4ccccn4)c(SC)c3)o2)ccc1/N=C(\N)c1ccccn1`, the ΔTm in experiment [2] was found to be 0; in experiment [5], 1. Moreover, the IC50 in experiment [3] is 0.15 µM; in experiment [1], 0.15 µM; in experiment [4] it was 7.3 µM; in experiment [6] (read-out: IC50) it was 0.35 µM.

Take `N=C(N)Nc1ccc(-c2ccc(-c3ccc(NC(=N)N)cc3)o2)cc1`: the ΔTm in experiment [2] was determined as 10.8; in experiment [5], 21.6. In addition, the IC50 in experiment [3] is over 24 µM; in experiment [1], 86 µM; in experiment [4] it was 143 µM; in experiment [6] (read-out: IC50), 10.9 µM.

On to `N=C(Nc1ccc(-c2ccc(-c3ccc(NC(=N)c4ccccn4)c(Cl)c3)o2)cc1Cl)c1ccccn1`, for which the ΔTm in experiment [2] came out at 1.5; in experiment [5], 0.6. In addition, the results for the IC50 in experiment [1], in experiment [4] and in experiment [6] (read-out: IC50) were 0.5 µM, 128 µM and 0.51 µM, respectively.

Take `N=C(N)Nc1ccc(-c2ccc(-c3ccc(N=C(N)N)c(Cl)c3)o2)cc1Cl`: the ΔTm stood at 2.6 in experiment [2] and 12.7 in experiment [5]. Besides, the IC50 is over 6.3 µM in experiment [3], 44 µM in experiment [1], 35.7 µM in experiment [4] and over 50 µM in experiment [6] (read-out: IC50).

Take `COc1cc(-c2ccc(-c3ccc(/N=C(\N)c4ccccn4)c(OC)c3)o2)ccc1/N=C(\N)c1ccccn1`: the results for the ΔTm in experiment [2] and in experiment [5] were 6.6 and 15.2, respectively. Further, the 50% inhibitory concentration (IC50) was 0.16 µM in experiment [3], 1 µM in experiment [1], 7.9 µM in experiment [4] and 0.29 µM in experiment [6] (read-out: IC50).

As to `N=C(N)Nc1ccc(-c2ccc(-c3ccc(NC(=N)N)cc3Cl)o2)c(Cl)c1`, the ΔTm worked out at 4.7 in experiment [2] and 26.1 in experiment [5]. Further, the IC50 was over 6.8 µM in experiment [3], 27 µM in experiment [1], 14.2 µM in experiment [4] and 6.2 µM in experiment [6] (read-out: IC50).

Turning to `CCOc1cc(-c2ccc(-c3ccc(N=C(N)N)c(OCC)c3)o2)ccc1N=C(N)N`, the ΔTm was 6.8 in experiment [2] and 16.5 in experiment [5]. Moreover, the IC50 is over 40 µM in experiment [3], 152 µM in experiment [1], 74 µM in experiment [4] and 11.2 µM in experiment [6] (read-out: IC50).

In the case of `Cc1cc(NC(=N)N)ccc1-c1ccc(-c2ccc(NC(=N)N)cc2C)o1`, the results for the ΔTm in experiment [2] and in experiment [5] were 6.9 and 17.8, respectively. In addition, the IC50 was over 6 µM in experiment [3], 3.2 µM in experiment [1], 14.6 µM in experiment [4] and 3.3 µM in experiment [6] (read-out: IC50).

Turning to `COc1cc(NC(=N)c2ccccn2)ccc1-c1ccc(-c2ccc(NC(=N)c3ccccn3)cc2OC)o1`, the ΔTm was determined as 7.8 in experiment [2] and 19 in experiment [5]. In addition, the IC50 was 0.48 µM in experiment [3], 0.57 µM in experiment [1], 12.7 µM in experiment [4] and 0.1 µM in experiment [6] (read-out: IC50).

With `N=C(Nc1ccc(-c2ccc(-c3ccc(NC(=N)c4ccccn4)cc3)o2)cc1)c1ccccn1`, the ΔTm is 7.5 in experiment [2] and 19.6 in experiment [5]. Besides, the IC50 was found to be 1.45 µM in experiment [3], 9.6 µM in experiment [1], 17.1 µM in experiment [4] and 0.55 µM in experiment [6] (read-out: IC50).

As to `N=C(Nc1ccc(-c2ccc(-c3ccc(NC(=N)c4ccccn4)cc3Cl)o2)c(Cl)c1)c1ccccn1`, the ΔTm in experiment [2] was determined as 0; in experiment [5], 5.2. Moreover, the 50% inhibitory concentration (IC50) in experiment [3] worked out at 0.13 µM; in experiment [1], 0.49 µM; in experiment [4], 8 µM; in experiment [6] (read-out: IC50) it was 0.66 µM.

Regarding `COc1cc(NC(=N)N)ccc1-c1ccc(-c2ccc(NC(=N)N)cc2OC)o1`, the values for the ΔTm in experiment [2] and in experiment [5] were 2.8 and 15.2, respectively. Besides, the IC50 turned out to be 5.2 µM in experiment [3], 1.3 µM in experiment [1], 20 µM in experiment [4] and 18.7 µM in experiment [6] (read-out: IC50).

As for `CC(C)Oc1cc(NC(=N)N)ccc1-c1ccc(-c2ccc(NC(=N)N)cc2OC(C)C)o1`, the results for the ΔTm in experiment [2] and in experiment [5] were 1.5 and 12, respectively. Moreover, the IC50 in experiment [3] is over 6 µM; in experiment [1], 35 µM; in experiment [4], 16 µM; in experiment [6] (read-out: IC50), 9.65 µM.

In the case of `Cc1c(/N=C(\N)c2ccccn2)ccc(-c2ccc(-c3ccc(/N=C(\N)c4ccccn4)c(C)c3C)o2)c1C`, the ΔTm in experiment [2] stood at 4.2; in experiment [5], 13.8. Besides, the IC50 came out at 3.6 µM in experiment [3], 0.91 µM in experiment [1], 60.6 µM in experiment [4] and 1.14 µM in experiment [6] (read-out: IC50).

`N=C(N)c1ccc(-c2ccc(-c3ccc(C(=N)N)cc3)o2)cc1` [FURAMIDINE]: the ΔTm in experiment [2] was 11.7; in experiment [5], 25. Also, the IC50 worked out at 23.3 µM in experiment [1], 6.4 µM in experiment [4] and 2.7 µM in experiment [6] (read-out: IC50).

On to `Cc1cc(NC(=N)c2ccccn2)ccc1-c1ccc(-c2ccc(NC(=N)c3ccccn3)cc2C)o1`, for which the ΔTm was 8.9 in experiment [2] and 22.6 in experiment [5]. Further, the IC50 was 0.6 µM in experiment [3], 0.21 µM in experiment [1], 11.3 µM in experiment [4] and 0.38 µM in experiment [6] (read-out: IC50).

With `CCCCCCCCCCCCCCCCOP(=O)([O-])OCC[N+](C)(C)C` [MILTEFOSINE], the half-inhibitory concentration (IC50) in experiment [3] came to 1 µM.

As for `CSc1cc(-c2ccc(-c3ccc(N=C(N)N)c(SC)c3)o2)ccc1N=C(N)N`, the ΔTm worked out at 2.6 in experiment [2] and 12.2 in experiment [5]. The IC50 in experiment [3] is over 19 µM; in experiment [1], 114 µM; in experiment [4] it was 68 µM; in experiment [6] (read-out: IC50), 22.6 µM.

In the case of `Cc1c(N=C(N)N)ccc(-c2ccc(-c3ccc(N=C(N)N)c(C)c3C)o2)c1C`, the ΔTm in experiment [2] was 1.3; in experiment [5], 3.8. Moreover, the IC50 in experiment [3] was over 19 µM; in experiment [1] it was 2.7 µM; in experiment [4], 33.4 µM; in experiment [6] (read-out: IC50), 4.2 µM.

As for `N=C(Nc1ccc(-c2ccc(-c3ccc(NC(=N)c4ccccc4)cc3)o2)cc1)c1ccccc1`, the ΔTm was 15 in experiment [2] and 28 in experiment [5]. For the same compound, the 50% inhibitory concentration (IC50) in experiment [3] is over 8 µM; in experiment [1], 13.7 µM; in experiment [4], 3.8 µM; in experiment [6] (read-out: IC50), over 100 µM.
